Experimental findings from patent publication US11840527B2, “Non-fused thiophene derivatives and their uses” (ENYO PHARMA, priority 2018, dated 2023) are described below.

Where a name gives a salt, the structure may show the parent alone.

For this assay, the system named is H1N1 (influenza A/New Caledonia/20/99). In words: Antiviral effect on A549 cells infected with H1N1. Particulars: Influenza A virus, MOI 0.1, 48 h post-infection, MUNANA neuraminidase readout. Format: cell-based, H1N1 A/New Caledonia/20/99 virus. On the procedure:
The antiviral effect of the compounds of the invention have been tested on A549 cell lines infected with H1N1 (influenza A/New Caledonia/20/99).
Human A549 cells (80,000 cells/well in a 96 well plate) were treated with a range of concentration of test compounds and immediately infected by H1N1 A/New Caledonia/20/99 virus (clinical isolate) at MOI of 0.1 in DMEM/1% Penicillin/streptomycin supplemented with […] TPCK trypsin (Sigma) and incubated at 37° C. in 5% CO2. 48 h post-infection, supernatants (25 μl) were collected and transferred into a 96-well black flat-bottom plate, mixed with 25 μl PBS with Ca++/Mg++ (Thermo Fisher) and 50 μl of 2′-(4-Methylumbelliferyl)-ax-D-N-acetylneuraminic acid sodium salt hydrate stock-solution (20 μM, MUNANA, Sigma). Plates were incubated 1h at 37° C. and reaction is stopped by adding 100 μl of Stop Solution (glycine 0.1 M pH10.7/25% ethanol). The amount of fluorescent product released by MUNANA hydrolysis (4-MU) was measured in a Tecan spectrophotometer with excitation and emission wavelengths of 365 and 450 nm respectively.
Take `O=C(Nc1scc(C2CC(F)(F)C2)c1C(=O)O)c1ccc(NCC2CCOCC2)cc1` [Compound #106, 4-(3,3-Difluorocyclobutyl)-2-[[4-(tetrahydropyran-4-ylmethylamino)benzoyl]amino]thiophene-3-carboxylic acid]: the midpoint of inhibition, the IC50, lay at 0.35 µM.
In the case of `Cc1sc(NC(=O)c2ccc(OC(F)F)cc2)c(C(=O)O)c1-c1ccc(Cl)cc1` [Compound #5, 4-(4-Chlorophenyl)-2-[[4-(difluoromethoxy)benzoyl]amino]-5-methyl-thiophene-3-carboxylic acid] it was 0.26 µM.
In the case of `Cc1ccc(-c2c(Cl)sc(NC(=O)c3ccccc3)c2C(=O)O)cc1C` [Compound #23, 2-Benzamido-5-chloro-4-(3,4-dimethylphenyl)thiophene-3-carboxylic acid], the midpoint of inhibition, the IC50, lay at 0.42 µM.
Then `Cc1sc(NC(=O)c2ccc(OC(F)F)cc2)c(C(=O)O)c1-c1ccccc1` [Compound #30, 2-[[4-(Difluoromethoxy)benzoyl]amino]-5-methyl-4-phenyl-thiophene-3-carboxylic acid], with 1.37 µM; and `COC1CN(c2ccc(C(=O)Nc3scc(C(C)(C)C)c3C(=O)O)cc2)C1` [Compound #92, 4-tert-Butyl-2-[[4-(3-methoxyazetidin-1-yl)benzoyl]amino]thiophene-3-carboxylic acid], with 0.26 µM; and `O=C(Nc1sc(Cl)c(C2CCCCC2)c1C(=O)O)c1ccccc1` [Compound #12, 2-Benzamido-5-chloro-4-cyclohexyl-thiophene-3-carboxylic acid], with 0.245 µM.
Then `Cc1ccccc1C(=O)Nc1sc(-c2ccccc2)cc1C(=O)O` [Compound #45, 2-[(2-Methylbenzoyl)amino]-5-phenyl-thiophene-3-carboxylic acid], with 8.55 µM; and `Cc1sc(NC(=O)c2ccccc2)c(C(=O)O)c1-c1ccc(Cl)cc1` [Compound #4, 2-Benzamido-4-(4-chlorophenyl)-5-methyl-thiophene-3-carboxylic acid], with 0.17 µM.
In the case of `CC(C)(C)c1csc(NC(=O)c2ccc(NC3CCOCC3)cc2)c1C(=O)O` [Compound #105, 4-tert-Butyl-2-[[4-(tetrahydropyran-4-ylamino)benzoyl]amino]thiophene-3-carboxylic acid] it was 0.68 µM.
Consider `COc1ccc(C(=O)Nc2scc(-c3ccccc3)c2C(=O)O)cc1OC` [Compound #46, 2-[(3,4-Dimethoxybenzoyl)amino]-4-phenyl-thiophene-3-carboxylic acid], for which the IC50 (as a rule, the concentration that inhibits the measured activity by half) was found to be 9.65 µM. This IC50 is about 14-fold higher than that of the molecule before.
In the case of `O=C(Nc1scc(-c2ccccc2)c1C(=O)O)c1ccc(OC(F)F)cc1` [Compound #28, 2-[[4-(Difluoromethoxy)benzoyl]amino]-4-phenyl-thiophene-3-carboxylic acid] it was 1.27 µM; in that of `O=C(Nc1scc(C2CCC2)c1C(=O)O)c1ccccc1` [Compound #98, 2-Benzamido-4-cyclobutyl-thiophene-3-carboxylic acid], 0.61 µM; in that of `Cc1ccc(-c2csc(NC(=O)c3ccccc3)c2C(=O)O)cc1` [Compound #21, 2-Benzamido-4-(p-tolyl)thiophene-3-carboxylic acid], 0.61 µM.
Then `O=C(Nc1scc(C2CC(F)(F)C2)c1C(=O)O)c1ccccc1` [Compound #35, 2-Benzamido-4-(3,3-difluorocyclobutyl)thiophene-3-carboxylic acid], with 1.67 µM; and `CC(C)(C)c1csc(NC(=O)c2ccccc2)c1C(=O)O` [Compound #32, 2-Benzamido-4-tert-butyl-thiophene-3-carboxylic acid], with 1.47 µM.
In the case of `COC1CN(c2ccc(C(=O)Nc3scc(C4(C)CC4)c3C(=O)O)cc2)C1` [Compound #112, 2-[[4-(3-Methoxyazetidin-1-yl)benzoyl]amino]-4-(1-methylcyclopropyl) thiophene-3-carboxylic acid] it was 0.38 µM; in that of `O=C(Nc1scc(C2C3CCCCC32)c1C(=O)O)c1ccccc1` (centres unmarked) [Compound #37, 2-Benzamido-4-norcaran-7-yl-thiophene-3-carboxylic acid], 1.87 µM.
In the case of `COC1CN(c2ccc(C(=O)Nc3scc(C4(C)CCC4)c3C(=O)O)cc2)C1` [Compound #115, 2-[[4-(3-Methoxyazetidin-1-yl)benzoyl]amino]-4-(1-methylcyclobutyl) thiophene-3-carboxylic acid], the IC50 was 0.24 µM.
In the case of `CN(CC1CCOCC1)c1ccc(C(=O)Nc2scc(C(C)(C)C)c2C(=O)O)cc1` [Compound #120, 4-tert-Butyl-2-[[4-[methyl(tetrahydropyran-4-ylmethyl)amino]benzoyl]amino]thiophene-3-carboxylic acid] it was 0.1 µM; in that of `CC(C)(C)c1csc(NC(=O)c2ccc(NCC3CCOCC3)cc2)c1C(=O)O` [Compound #91, 4-Tert-butyl-2-[[4-(tetrahydropyran-4-ylmethylamino)benzoyl]amino]thiophene-3-carboxylic acid], 0.12 µM.
In the case of `COC1CN(c2ccc(C(=O)Nc3scc(C4CC4)c3C(=O)O)cc2)C1` [Compound #88, 4-Cyclopropyl-2-[[4-(3-methoxyazetidin-1-yl)benzoyl]amino]thiophene-3-carboxylic acid] it was 0.5 µM.
Consider `O=C(Nc1scc(C2CCCC2)c1C(=O)O)c1cccc(N2CCOCC2)c1` [Compound #71, 4-Cyclopentyl-2-[(3-morpholinobenzoyl)amino]thiophene-3-carboxylic acid], for which the IC50 was determined as 0.13 µM. Against the preceding molecule, the IC50 is about 3.8-fold lower.
Take `O=C(Nc1scc(C2CCCC2)c1C(=O)O)c1ccc(NC2CCOCC2)cc1` [Compound #60, 4-Cyclopentyl-2-[[4-(tetrahydropyran-4-ylamino)benzoyl]amino]thiophene-3-carboxylic acid]: the IC50 worked out at 0.047 µM.
As to `COCCN(C)c1ccc(C(=O)Nc2scc(C(C)(C)C)c2C(=O)O)cc1` [Compound #117, 4-tert-Butyl-2-[[4-[2-methoxyethyl(methyl)amino]benzoyl]amino]thiophene-3-carboxylic acid], it took 0.076 µM to reach half-maximal inhibition (IC50).
Then `CC(C)(C)[C@H]1CC[C@@H](c2csc(NC(=O)c3ccccc3)c2C(=O)O)CC1` [Compound #54, 2-Benzamido-4-(cis-4-tert-butylcyclohexyl)thiophene-3-carboxylic acid], with 0.46 µM; and `O=C(Nc1scc(C2CC2)c1C(=O)O)c1ccccc1` [Compound #87, 2-Benzamido-4-cyclopropyl-thiophene-3-carboxylic acid], with 0.81 µM.
Then `O=C(Nc1scc(C2CCCCC2)c1C(=O)O)c1ccc(N2CCOCC2)cc1` [Compound #29, 4-Cyclohexyl-2-[(4-morpholinobenzoyl)amino]thiophene-3-carboxylic acid], with 1.27 µM.
In the case of `CCOC1CN(c2ccc(C(=O)Nc3scc(C(C)(C)C)c3C(=O)O)cc2)C1` [Compound #104, 4-tert-Butyl-2-[[4-(3-ethoxyazetidin-1-yl)benzoyl]amino]thiophene-3-carboxylic acid] it was 0.24 µM.
For `Cc1ccc(-c2csc(NC(=O)c3ccccc3)c2C(=O)O)cc1C` [Compound #22, 2-Benzamido-4-(3,4-dimethylphenyl)thiophene-3-carboxylic acid], the IC50 turned out to be 0.55 µM.
Then `O=C(Nc1sc(Cl)c(-c2ccc(C(F)(F)F)cc2)c1C(=O)O)c1ccccc1` [Compound #50, 2-Benzamido-5-chloro-4-[4-(trifluoromethyl)phenyl]thiophene-3-carboxylic acid], with 0.32 µM.
Then `O=C(Nc1sc(Cl)c(-c2ccccc2)c1C(=O)O)c1ccccc1` [Compound #33, 2-Benzamido-5-chloro-4-phenyl-thiophene-3-carboxylic acid], with 1.47 µM; and `O=C(Nc1sc(Cl)c(-c2ccccc2)c1C(=O)O)c1ccc(OC(F)F)cc1` [Compound #31, 5-Chloro-2-[[4-(difluoromethoxy)benzoyl]amino]-4-phenyl-thiophene-3-carboxylic acid], with 1.37 µM.
`COC1CN(c2ccc(C(=O)Nc3sc(C(C)C)c(C)c3C(=O)O)cc2)C1` [Compound #114, 5-Isopropyl-2-[[4-(3-methoxyazetidin-1-yl)benzoyl]amino]-4-methyl-thiophene-3-carboxylic acid diethylamine salt]: the IC50 amounted to 0.51 µM.
In the case of `Cc1sc(NC(=O)c2ccccc2)c(C(=O)O)c1C1CCCCC1` [Compound #27, 2-Benzamido-4-cyclohexyl-5-methyl-thiophene-3-carboxylic acid] it was 0.88 µM; in that of `O=C(Nc1sc(Cl)c(-c2ccc(Cl)c(F)c2)c1C(=O)O)c1ccccc1` [Compound #6, 2-Benzamido-5-chloro-4-(4-chloro-3-fluoro-phenyl)thiophene-3-carboxylic acid], 0.247 µM.
Then `CC(C)Cc1csc(NC(=O)c2ccccc2)c1C(=O)O` [Compound #96, 2-Benzamido-4-isobutyl-thiophene-3-carboxylic acid], with 0.61 µM; and `Cc1sc(NC(=O)c2ccccc2)c(C(=O)O)c1-c1ccccc1` [Compound #34, 2-Benzamido-5-methyl-4-phenyl-thiophene-3-carboxylic acid], with 1.48 µM.
Then `O=C(Nc1scc(C2CC(c3ccccc3)C2)c1C(=O)O)c1ccccc1` (centres unmarked) [Compound #63, 2-Benzamido-4-(3-phenylcyclobutyl)thiophene-3-carboxylic acid], with 0.15 µM.
